The values that follow come from DBAASP.

Among the test systems are Escherichia coli HB101; Serratia marcescens; Bacillus subtilis; Escherichia coli; Candida albicans; Shigella dysenteriae; Saccharomyces cerevisiae; Micrococcus luteus; Salmonella typhimurium; Proteus mirabilis; Pseudomonas aeruginosa; Staphylococcus aureus; Klebsiella pneumoniae; Escherichia coli UB1005.
Assay in all cases: ≥ marks a high value that may be exact or a test limit, other limits are often not marked, values filed in µg/mL are converted to µM
Experiment [1] relates to Escherichia coli ATCC 25922.
For experiment [2], the system named is Staphylococcus epidermidis.
In experiment [3] the test system is Clavibacter michiganensis subsp. michiganensis DSM 46294.
Experiment [4] concerns Xanthomonas vesicatoria DSM 50861.
Experiment [5] concerns Pseudomonas syringae pv. tomato DC3000.
Experiment [6] concerns Pseudomonas corrugata DSM 7228.
Experiment [7] relates to Pectobacterium carotovorum subsp. carotovorum DSM 30168.
The subject of experiment [8] is Pseudomonas syringae pv. syringae DSM 10604.
In experiment [9] the test system is Staphylococcus epidermidis ATCC 12228.
The test system of experiment [10] is Staphylococcus aureus ATCC 29213.
Experiment [11] has as its system Salmonella enterica subsp. enterica serovar Typhimurium C77-31.
The subject of experiment [12] is Salmonella enterica subsp. enterica serovar Pullorum C79-13.
In experiment [13] the test system is Enterococcus faecalis ATCC 29212.
The test system of experiment [14] is Pseudomonas aeruginosa ATCC 27853.
Experiment [15] relates to Salmonella enterica subsp. enterica serovar Typhimurium ATCC 14028.

Converted amounts (≈) assume the structure as drawn.

The MIC is the lowest concentration found to suppress growth. For the compound `CC[C@H](C)[C@H](NC(=O)[C@H](CCCN=C(N)N)NC(=O)[C@@H](N)CCCN=C(N)N)C(=O)N[C@@H](CCCN=C(N)N)C(=O)N1CCC[C@H]1C(=O)N[C@@H](CCCN=C(N)N)C(=O)N1CCC[C@H]1C(=O)N[C@@H](CCCN=C(N)N)C(=O)N[C@@H](CS)C(=O)O` [RRIRPRPRC], the figures for the MIC (against Escherichia coli HB101; in [1]) were at least 128 µM and above 128 µM, respectively.

For the compound `CC[C@H](C)[C@H](NC(=O)CN)C(=O)N[C@@H](CC(C)C)C(=O)N[C@@H](CC(=O)O)C(=O)N[C@H](C(=O)N[C@@H](CC(C)C)C(=O)N[C@@H](CCCCN)C(=O)N[C@@H](CCC(N)=O)C(=O)N[C@@H](Cc1ccccc1)C(=O)N[C@@H](C)C(=O)N[C@@H](CCCCN)C(=O)NCC(=O)N[C@H](C(=O)NCC(=O)N[C@@H](CCCCN)C(=O)N[C@@H](CC(=O)O)C(=O)N[C@@H](CC(C)C)C(=O)N[C@H](C(=O)N[C@@H](CCCCN)C(=O)NCC(=O)N[C@@H](C)C(=O)N[C@@H](C)C(=O)N[C@@H](CCC(N)=O)C(=O)NCC(=O)N[C@H](C(=O)N[C@@H](CC(C)C)C(=O)N[C@@H](CO)C(=O)N[C@H](C(=O)O)[C@@H](C)O)C(C)C)C(C)C)C(C)C)[C@@H](C)O` [GILDTLKQFAKGVGKDLVKGAAQGVLST], the minimal inhibitory concentration (MIC) against Serratia marcescens was at least 35.5 µM; with Bacillus subtilis, 17.8 µM (≈ 50 µg/mL); in [2], 17.8 µM (≈ 50 µg/mL); with Escherichia coli, 8.88 µM (≈ 25 µg/mL); in the experiment with Candida albicans, above 35.5 µM; in the experiment on Shigella dysenteriae it was 8.88 µM (≈ 25 µg/mL). Further, the MIC is 8.88 µM (≈ 25 µg/mL) against Saccharomyces cerevisiae; 0.888 µM (≈ 2.5 µg/mL) against Micrococcus luteus; 26.6 µM (≈ 75 µg/mL) in the experiment with Salmonella typhimurium; at least 35.5 µM in the experiment with Proteus mirabilis; 17.8 µM (≈ 50 µg/mL) against Pseudomonas aeruginosa.

`CC[C@H](C)[C@H](NC(=O)[C@@H](NC(=O)[C@@H]1CCCN1C(=O)[C@@H](NC(=O)[C@@H]1CCCN1C(=O)[C@H](CCCCN)NC(=O)[C@H](CCCCN)NC(=O)[C@H](CO)NC(=O)CN)C(C)C)[C@@H](C)CC)C(=O)N[C@@H](Cc1ccc(O)cc1)C(=O)N[C@H]1CSSC[C@@H](C(=O)N[C@@H](CCC(N)=O)C(=O)N[C@@H](CCCN=C(N)N)C(=O)N[C@@H](CCSC)C(=O)O)NC(=O)[C@H](CCCCN)NC(=O)[C@H](CCCN=C(N)N)NC(=O)[C@H](CCCN=C(N)N)NC(=O)[C@H](CC(N)=O)NC1=O` [GSKKPVPIIYCNRRKCQRM]: the MIC with Bacillus subtilis is 5.2 µM (≈ 11.8 µg/mL); in the experiment on Escherichia coli HB101 it was 2.6 µM (≈ 5.92 µg/mL); in the experiment with Salmonella typhimurium it was 1.3 µM (≈ 2.96 µg/mL); against Staphylococcus aureus, 10.4 µM (≈ 23.7 µg/mL); in the experiment with Pseudomonas aeruginosa, 10.4 µM (≈ 23.7 µg/mL).

Turning to `CC(C)C[C@H](NC(=O)[C@H](C)NC(=O)[C@H](CCCN=C(N)N)NC(=O)[C@H](CCCN=C(N)N)NC(=O)[C@H](C)NC(=O)[C@H](Cc1ccccc1)NC(=O)[C@H](CCCN=C(N)N)NC(=O)[C@@H](N)CC(C)C)C(=O)N[C@@H](CCCN=C(N)N)C(=O)N[C@@H](CCCN=C(N)N)C(=O)N[C@@H](CC(C)C)C(=O)N[C@@H](Cc1ccccc1)C(N)=O` [LRFARRALRRLF], the MIC came to 0.635 µM (≈ 0.999 µg/mL) in experiment [3]; 0.635 µM (≈ 0.999 µg/mL) in [4]; 0.159 µM (≈ 0.25 µg/mL) in experiment [5]; 0.318 µM (≈ 0.5 µg/mL) in experiment [6]; 1.59 µM (≈ 2.5 µg/mL) in [7]; 0.159 µM (≈ 0.25 µg/mL) in experiment [8].

For the compound `CC(C)C[C@H](NC(=O)[C@H](C)NC(=O)CNC(=O)[C@H](CC(C)C)NC(=O)[C@@H](N)Cc1ccccc1)C(=O)N[C@@H](Cc1ccccc1)C(=O)N[C@@H](CCCCN)C(=O)N[C@H](C(=O)N[C@@H](C)C(=O)N[C@@H](CO)C(=O)N[C@@H](CCCCN)C(=O)O)C(C)C` [FLGALFKVASK], the MIC in the experiment with Bacillus subtilis was at least 169 µM; in the experiment with Klebsiella pneumoniae, above 169 µM; in experiment [2] it was at least 169 µM; with Escherichia coli it was above 169 µM; against Shigella dysenteriae, at least 169 µM; in the experiment on Micrococcus luteus it was at least 169 µM. The MIC with Salmonella typhimurium was at least 169 µM; with Proteus mirabilis, at least 169 µM; in the experiment with Staphylococcus aureus, above 169 µM; against Pseudomonas aeruginosa it was above 169 µM.

Turning to `CC(C)C[C@H](NC(=O)[C@H](CC(C)C)NC(=O)[C@H](CCCN=C(N)N)NC(=O)[C@H](CCCCN)NC(=O)[C@H](CC(C)C)NC(=O)[C@H](CC(C)C)NC(=O)[C@H](CCCCN)NC(=O)[C@H](CCCCN)NC(=O)[C@H](CCCN=C(N)N)NC(=O)[C@H](CCCCN)NC(=O)[C@H](CCCCN)NC(=O)[C@@H](N)CCCN=C(N)N)C(N)=O` [RKKRKKLLKRLL], the MIC in experiment [3] is 3.16 µM (≈ 5 µg/mL); in experiment [4], 3.16 µM (≈ 5 µg/mL); in experiment [5] it was 0.633 µM (≈ 0.999 µg/mL); in [6], 0.158 µM (≈ 0.25 µg/mL); in experiment [7], 6.33 µM (≈ 9.99 µg/mL); in experiment [8], 0.0633 µM (≈ 0.1 µg/mL).

Turning to `CC(C)C[C@H](NC(=O)[C@@H](NC(=O)[C@@H](NC(=O)[C@@H](N)CC(C)C)C(C)C)[C@@H](C)O)C(=O)N[C@H](C(=O)N[C@@H](Cc1ccccc1)C(=O)N[C@H](C(=O)NCC(=O)NCC(=O)NCC(=O)N[C@@H](Cc1c[nH]c2ccccc12)C(=O)N[C@@H](CCCCN)C(=O)N[C@@H](Cc1c[nH]c2ccccc12)C(=O)N[C@@H](CCCCN)C(=O)N[C@@H](Cc1c[nH]c2ccccc12)C(=O)N[C@@H](CCC(=O)O)C(=O)N[C@@H](CC(N)=O)C(=O)NCC(=O)N[C@@H](CCCCN)C(=O)N[C@@H](Cc1c[nH]c2ccccc12)C(=O)N[C@@H](CCCCN)C(=O)N[C@@H](Cc1c[nH]c2ccccc12)C(=O)N[C@@H](CCC(N)=O)C(=O)N[C@@H](Cc1c[nH]c2ccccc12)C(=O)O)C(C)C)C(C)C` [LVTLVFVGGGWKWKWENGKWKWQW], the MIC was above 128 µM in experiment [9]; above 128 µM in experiment [1]; above 128 µM in [10]; at least 128 µM in [11]; at least 128 µM in experiment [12]; above 128 µM in experiment [13].

As to `CC[C@H](C)[C@H](NC(=O)[C@H](CC(C)C)NC(=O)[C@H](CCCCN)NC(=O)[C@@H](NC(=O)[C@@H](NC(=O)[C@H](CC(C)C)NC(=O)[C@H](CCCCN)NC(=O)[C@H](CC(C)C)NC(=O)[C@@H](NC(=O)[C@H](CCCN=C(N)N)NC(=O)[C@@H](NC(=O)[C@H](CC(C)C)NC(=O)[C@@H](NC(=O)[C@H](CCCN=C(N)N)NC(=O)[C@H](CCCN=C(N)N)NC(=O)[C@@H](N)CCCCN)[C@@H](C)CC)[C@@H](C)CC)[C@@H](C)CC)[C@@H](C)CC)[C@@H](C)CC)C(=O)N[C@@H](CC(C)C)C(=O)N[C@@H](CCCCN)C(=O)N[C@@H](CCCCN)C(=O)N[C@@H](CCCN=C(N)N)C(N)=O` [KRRILIRILKLIIKLILKKR], the MIC in experiment [3] came out at 0.989 µM (≈ 2.5 µg/mL); in experiment [4] it was 0.396 µM (≈ 1 µg/mL); in experiment [5] it was 0.989 µM (≈ 2.5 µg/mL); in experiment [6] it was 3.96 µM (≈ 10 µg/mL); in [7], 3.96 µM (≈ 10 µg/mL); in [8], 3.96 µM (≈ 10 µg/mL).

As for `CC[C@H](C)[C@H](NC(=O)[C@H](CCCCN)NC(=O)[C@H](CCCCN)NC(=O)[C@H](Cc1ccccc1)NC(=O)[C@H](CC(C)C)NC(=O)[C@H](CCCCN)NC(=O)[C@H](Cc1c[nH]c2ccccc12)NC(=O)[C@@H](N)CCCCN)C(=O)N[C@@H](CCCN=C(N)N)C(=O)N[C@@H](Cc1ccccc1)C(=O)NCC(=O)N[C@@H](CCCN=C(N)N)C(=O)N[C@@H](Cc1ccccc1)C(=O)N[C@@H](CC(C)C)C(=O)N[C@@H](CCCN=C(N)N)C(=O)N[C@@H](CCCCN)C(=O)N[C@H](C(=O)N[C@@H](CCCN=C(N)N)C(=O)N[C@@H](CCCN=C(N)N)C(=O)N[C@@H](Cc1ccccc1)C(=O)N[C@@H](CCCN=C(N)N)C(=O)N1CCC[C@H]1C(=O)N[C@@H](CCCCN)C(N)=O)[C@@H](C)CC` [KWKLFKKIRFGRFLRKIRRFRPK], the MIC against Escherichia coli UB1005 amounted to 2 µM (≈ 6.21 µg/mL); in [9], 4 µM (≈ 12.4 µg/mL); in experiment [14], 4 µM (≈ 12.4 µg/mL); in experiment [11], 4 µM (≈ 12.4 µg/mL); in experiment [15], 4 µM (≈ 12.4 µg/mL); in experiment [12], 8 µM (≈ 24.8 µg/mL). In addition, the MIC in [13] was 4 µM (≈ 12.4 µg/mL).
